Results on three compounds are retold here after patent US20070213382A1, “2-METHYLTHIAZOLIDINE-2, 4-DICARBOXYLIC ACID-CONTAINING COMBINATION PREPARATIONS” (priority 2004, published 2007).

For data set [1], the system named is Bladder carcinoma cells EJ. The data set can be described thus: in vitro cytotoxicity assay, crystal violet, 72 h (Example 1). The following applies: for IC50: Homo sapiens. In kind it is cell-based, human. The procedure:
(§1) Examinations for the in vitro cytoxicity of 2-methylthiazolidine-2,4-dicarboxylic acid and N-acetylcysteine in human tumor cell lines were carried out.
(§2) The cells were kept in culturing medium RPMI 1640 (Sigma, Munich) and in addition 10% FCS (Sigma, Munich) in 50 ml cell culture vials (Greiner) at 37° C. as well as under a 5% of CO2 atmosphere.
(§3) Monolayers of the tumor cells were prepared by dispersion of 2×10^6 tumor cells in 96-hole-plates (Greiner). After an incubation time of 24 hours the medium was replaced by a medium containing the test compounds. All assays were carried out four times.
(§4) After 72 h the quantity of living cells was determined by means of coloring with crystal violet.
(§5) For that purpose, the medium was removed from each hole in the plate, the plates were washed twice with PBS, the cells were fixed by means of PBS, containing 1% of paraformaldehyde and dried for 15 minutes at room temperature. Subsequently, the cells were rinsed with PBS and dried at room temperature.
(§6) Thereafter, the cells were colored with 1% crystal violet solution in water for two minutes, and after washing with water the optical density was determined by means of an ELISA spectrometer at 595 nm. The average values and standard deviations for the average values were determined for all four parallel tests.

Data set [2] deals with Neuroglioma cells H4. The description is as above. In kind it is cell-based. The following applies: human gliomas cells H4, 72 h; for cytotoxic effect: N-acetylcysteine up to comparatively high concentrations. How it is done: as §1, §2, §3, §4, §5, §6

Values after ≈ are worked out from the molar mass of the structure shown. Like-named read-outs stand apart in the source and are kept apart here.

The term IC50 denotes the concentration that inhibits the measured activity by half. Take `CC1(C(=O)O)NC(C(=O)O)CS1` (stereo not shown) [2-methylthiazolidine-2,4-dicarboxylic acid]: in data set [1] (substance alone), the “growth of the bladder carcinoma cell line EJ” value is given as “not influenced”. Moreover, in data set [2], half-maximal inhibition (IC50) required 9.66 µg/mL (≈ 50.5 µM) and the cytotoxic effect entry was “significant cytotoxic effect”.

Consider `CC(=O)N[C@@H](CS)C(=O)O` [N-acetylcysteine], for which, in data set [2], the cytotoxic effect entry is on record as “no effect”.

For the compound `Cn1nnc2c(C(N)=O)ncn2c1=O` [temozolomide, Temozolomide], the half-inhibitory concentration (IC50) was determined as 1050 µg/mL (≈ 5430 µM) in data set [1] (alone, read-out: IC50 value for temozolomide alone); 96.6 µg/mL in data set [1] (in the presence of 200 μg/ml 2-methylthiazolidine-2,4-dicarboxylic acid, read-out: IC50 value of temozolomide in the presence of 2-methylthiazolidine-2,4-dicarboxylic acid); 903 µg/mL in data set [1] (in the presence of 1000 μg/ml N-acetylcysteine, read-out: IC50 value of temozolomide in the presence of N-acetylcysteine).
